In patent US9834542B2, “LXR modulators” (BRISTOL-MYERS SQUIBB COMPANY, priority 2013, dated 2017):

Biological target: T1, LXRβ (Homo sapiens, UniProt P55055)
T1 construct: Co-transfection expression plasmids, comprising full-length LXRα (pCMX-h LXRα[…] or LXRβ (pCMX-hLXRβ)); expressed in transfected cells; host or cells: CV-1 African Green Monkey Kidney Cells
T1 sequence (P55055 1-460): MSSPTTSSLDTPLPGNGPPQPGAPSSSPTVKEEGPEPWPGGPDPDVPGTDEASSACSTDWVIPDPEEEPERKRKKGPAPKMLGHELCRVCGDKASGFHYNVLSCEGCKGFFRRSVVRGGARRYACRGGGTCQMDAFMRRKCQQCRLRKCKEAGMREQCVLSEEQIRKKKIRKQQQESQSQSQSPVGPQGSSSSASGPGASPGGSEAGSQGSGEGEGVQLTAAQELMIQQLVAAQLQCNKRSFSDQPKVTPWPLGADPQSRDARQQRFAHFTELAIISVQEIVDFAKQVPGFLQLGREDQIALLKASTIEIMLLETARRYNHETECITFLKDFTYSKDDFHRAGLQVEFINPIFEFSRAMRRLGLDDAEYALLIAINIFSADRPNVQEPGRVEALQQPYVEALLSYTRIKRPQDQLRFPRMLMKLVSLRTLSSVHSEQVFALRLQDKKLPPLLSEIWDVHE
T1 sequence (P19793 1-462 partner): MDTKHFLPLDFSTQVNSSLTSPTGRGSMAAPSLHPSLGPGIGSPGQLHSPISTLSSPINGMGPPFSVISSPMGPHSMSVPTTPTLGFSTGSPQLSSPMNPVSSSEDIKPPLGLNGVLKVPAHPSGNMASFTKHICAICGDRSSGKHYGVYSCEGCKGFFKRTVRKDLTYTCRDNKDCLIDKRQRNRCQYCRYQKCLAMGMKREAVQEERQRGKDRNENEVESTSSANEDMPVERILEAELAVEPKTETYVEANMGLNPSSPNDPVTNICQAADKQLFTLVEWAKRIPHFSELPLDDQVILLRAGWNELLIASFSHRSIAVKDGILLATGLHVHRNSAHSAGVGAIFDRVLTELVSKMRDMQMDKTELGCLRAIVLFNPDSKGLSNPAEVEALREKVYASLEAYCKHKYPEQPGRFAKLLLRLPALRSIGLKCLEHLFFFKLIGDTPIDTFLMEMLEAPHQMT
Test: Co-transfection assay (LXRE luciferase reporter), LXRβ
Format: cell-based
Details: for EC50: CV-1 cells transfected with pCMX-hLXRβ and LXREx1-Tk-Luciferase, 20 hours incubation; for Emax: LXRβ co-transfection, relative to high control 1-(2,4-difluorobenzyl)-2-oxo-6-(4-phenoxyphenyl)-4-(trifluoromethyl)-1,2-dihydropyridine-3-carbonitrile, read-out: % Efficacy
Outline: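 Luciferase signal from an LXREx1-Tk reporter was measured after transfected CV-1 cells (full-length hLXRβ, endogenous RXR) were treated with compounds for 20 h at 37 °C, ≤0.5% DMSO. EC50 came from four-parameter fits of 11-point ½-log curves; % efficacy versus a reference agonist maximum.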

Compound | EC50 [nM] | Emax [%]
Cc1nc(C(F)(F)F)cn1-c1ccc(-c2cc(F)c(CO)c(S(C)(=O)=O)c2)cc1-c1nc(C(F)(F)F)cn1-c1ccc(Cl)cc1 [Example 645, (3′-(1-(4-chlorophenyl)-4-(trifluotomethyl)-1H-imidazol-2-yl)-3-fluoro-4′-(2-methyl-4-(trifluoromethyl)-1H-imidazol-1-yl)-5-(methylsulfonyl)biphenyl-4-yl)methanol] | 144 | 32
Cc1nc(-c2cc(-c3cc(F)c(CO)c(S(C)(=O)=O)c3)ccc2-n2cc(C(F)(F)F)nc2C)c(-c2ccc(OC3CCCCC3)nc2)o1 [Example 409, (3′-(5-(6-(cyclohexyloxy)pyridin-3-yl)-2-methyloxazol-4-yl)-3-fluoro-4′-(2-methyl-4-(trifluoromethyl)-1H-imidazol-1-yl)-5-(methylsulfonyl)biphenyl-4-yl)methanol] | 130 | 45
Cc1nc(C(F)(F)F)cn1-c1ccc(-c2cccc(S(C)(=O)=O)c2)cc1-n1nncc1C1(c2ccc(Cl)cc2)CC1 [Example 112, 5-[1-(4-chlorophenyl)cyclopropyl]-1-{3′-(methylsulfonyl)-4-[2-methyl-4-(trifluoromethyl)-1H-imidazol-1-yl]biphenyl-3-yl}-1H-1,2,3-triazole] | 973 | 53
COCc1c(F)cc(-c2cc(F)c(-n3cc(C(F)(F)F)nc3C)c(-n3nncc3-c3ccc(OC(F)(F)F)cc3)c2)cc1S(C)(=O)=O [Example 206, 1-{3′,5-difluoro-4′-[(methyloxy)methyl]-5′-(methylsulfonyl)-4-[2-methyl-4-(trifluoromethyl)-1H-imidazol-1-yl]biphenyl-3-yl}-5-{4-[(trifluoromethyl)oxy]phenyl}-1H-1,2,3-triazole] | 88 | 95
Cc1nc(C(F)(F)F)cn1-c1ccc(-c2cccc(S(C)(=O)=O)c2)cc1-n1nncc1C(C)c1ccc(Cl)cc1 (stereo not shown) [Example 108, 5-[1-(4-chlorophenyl)ethyl]-1-{3′-(methylsulfonyl)-4-[2-methyl-4-(trifluoromethyl)-1H-imidazol-1-yl]biphenyl-3-yl}-1H-1,2,3-triazole] | 149 | 62
Cc1nc(C(F)(F)F)cn1-c1ccc(-c2cccc(S(C)(=O)=O)c2)cc1-n1nncc1-c1ccc2c(c1)OC(F)(F)O2 [Example 73, 5-(2,2-difluoro-1,3-benzodioxol-5-yl)-1-{3′-(methylsulfonyl)-4-[2-methyl-4-(trifluoromethyl)-1H-imidazol-1-yl]biphenyl-3-yl}-1H-1,2,3-triazole] | 476 | 99
Cc1nc(C(F)(F)F)cn1-c1c(F)cc(-c2cc(F)c(CO)c(S(C)(=O)=O)c2)cc1-n1nncc1-c1ccc(Cl)cc1Cl [Example 200, {3′-[5-(2,4-dichlorophenyl)-1H-1,2,3-triazol-1-yl]-3,5′-difluoro-5-(methylsulfonyl)-4′-[2-methyl-4-(trifluoromethyl)-1H-imidazol-1-yl]biphenyl-4-yl}methanol] | 74 | 83
Cc1nc(C(F)F)cn1-c1ccc(-c2cc(F)c(CO)c(S(C)(=O)=O)c2)cc1-n1nncc1-c1ccc(OC(F)(F)F)cc1 [Example 220, (4′-(4-(difluoromethyl)-2-methyl-1H-imidazol-1-yl)-3-fluoro-5-(methylsulfonyl)-3′-(5-(4-(trifluoromethoxy)phenyl)-1H-1,2,3-triazol-1-yl)-[1,1′-biphenyl]-4-yl)methanol] | 782 | 102
CCOc1ncc(-c2oc(C)nc2-c2cc(-c3cc(F)c(CO)c(S(C)(=O)=O)c3)ccc2-n2cc(C(F)(F)F)nc2C)cc1F [Example 472, (3′-(5-(6-ethoxy-5-fluoropyridin-3-yl)-2-methyloxazol-4-yl)-3-fluoro-4′-(2-methyl-4-(trifluoromethyl)-1H-imidazol-1-yl)-5-(methylsulfonyl)biphenyl-4-yl)methanol] | 199 | 50
Cc1nc(C(F)(F)F)cn1-c1ccc(-c2cccc(S(C)(=O)=O)c2)cc1-n1nncc1Cc1cccc(Cl)c1 [Example 121, 5-[(3-chlorophenyl)methyl]-1-{3′-(methylsulfonyl)-4-[2-methyl-4-(trifluoromethyl)-1H-imidazol-1-yl]biphenyl-3-yl}-1H-1,2,3-triazole] | 651 | 100

Results, then the compound that gave them:

EC50 [nM] | Emax [%] | Compound
341 | 113 | Cc1nc(C(F)(F)F)cn1-c1ccc(-c2cccc(S(C)(=O)=O)c2)cc1-n1nncc1-c1ccc(Cl)c(F)c1 [Example 69, 5-(4-chloro-3-fluorophenyl)-1-{3′-(methylsulfonyl)-4-[2-methyl-4-(trifluoromethyl)-1H-imidazol-1-yl]biphenyl-3-yl}-1H-1,2,3-triazole]
297 | 80 | Cc1nc(C(F)(F)F)cn1-c1ccc(-c2cccc(S(C)(=O)=O)c2)cc1-n1nncc1-c1ccc(OC(F)F)cc1 [Example 65, 5-{4-[(difluoromethyl)oxy]phenyl}-1-{3′-(methylsulfonyl)-4-[2-methyl-4-(trifluoromethyl)-1H-imidazol-1-yl]biphenyl-3-yl}-1H-1,2,3-triazole]
502 | 70 | Cc1nc(C(C)(F)F)cn1-c1ccc(-c2cccc(S(=O)(=O)N(C)C)c2)cc1-n1nncc1-c1ccc(OC(F)(F)F)cc1 [Example 181, 4′-[4-(1,1-difluoroethyl)-2-methyl-1H-imidazol-1-yl]-N,N-dimethyl-3′-(5-{4-[(trifluoromethyl)oxy]phenyl}-1H-1,2,3-triazol-1-yl)biphenyl-3-sulfonamide]
13 | 100 | CCc1nc(-c2cc(-c3cc(F)c(CO)c(S(C)(=O)=O)c3)ccc2-n2cc(C(F)(F)F)nc2C)c(-c2ccc(OC(F)(F)F)cc2)o1 [Example 556, (3′-(2-ethyl-5-(4-(trifluoromethoxy)phenyl)oxazol-4-yl)-3-fluoro-4′-(2-methyl-4-(trifluoromethyl)-1H-imidazol-1-yl)-5-(methylsulfonyl)-[1,1′-biphenyl]-4-yl)methanol]
197 | 55 | Cc1nc(C(F)(F)F)cn1-c1ccc(-c2cc(F)c(CO)c(S(C)(=O)=O)c2)cc1-c1nc(CC(C)O)oc1-c1ccc(OC(F)(F)F)cc1 (stereo not shown) [Example 534, 1-(4-(3′-fluoro-4′-(hydroxymethyl)-4-(2-methyl-4-(trifluoromethyl)-1H-imidazol-1-yl)-5′-(methylsulfonyl)-[1,1′-biphenyl]-3-yl)-5-(4-(trifluoromethoxy)phenyl)oxazol-2-yl)propan-2-ol]
164 | 57 | COCCc1nc(-c2cc(-c3cccc(S(C)(=O)=O)c3)ccc2-n2cc(C(F)(F)F)nc2C)c(-c2ccc(OC(F)(F)F)cc2)o1 [Example 564, 2-(2-methoxyethyl)-4-(4-(2-methyl-4-(trifluoromethyl)-1H-imidazol-1-yl)-3′-(methylsulfonyl)-[1,1′-biphenyl]-3-yl)-5-(4-(trifluoromethoxy)phenyl)oxazole]
203 | 71 | Cc1nc(-c2cc(-c3cccc(S(C)(=O)=O)c3)ccc2-n2cc(C(F)(F)F)nc2C)c(-c2ccc(OCC(F)F)c(F)c2)o1 [Example 425, 5-(4-(2,2-difluoroethoxy)-3-fluorophenyl)-2-methyl-4-(4-(2-methyl-4-(trifluoromethyl)-1H-imidazol-1-yl)-3′-(methylsulfonyl)biphenyl-3-yl)oxazole]
